How the values were obtained:
[1] = molecular target: T1, human EP2 receptor (Homo sapiens, UniProt P43116); assay: EP2 binding assay (PGE2 displacement); settings: recombinant human EP2 membranes, 1 nanoM [3H]-PGE2; reported as range bins; read-out: EP2 binding (PGE2 displacement) pIC50 (-log IC50) (converted)
T1 construct: purchased Millipore
Procedure: Method for Measuring Inhibition of PGE2 Binding to the Human Prostanoid Receptor EP2:
Human EP2 receptor equilibrium competition binding assays were performed according to Abramovitz et al. (M. Abramovitz et al. 2000, Biochimica et Biophysica Acta 1483: 285-293) in a final incubation volume of 100 microL in 50 milliM Bis-Tris, pH6.0 in 96-well plates. Radiolabelled Prostaglandin E2 (PGE2) (1 nanoM [^3H]-PGE2 purchased from Perkin Elmer) was added to the assay as competitive ligand. Test compounds stored as Dimethylsulfoxide (DMSO) stock solutions were added to the assay in serial dilutions in assay buffer while keeping the final DMSO concentration equal in each sample. The reaction was initiated by addition of membrane proteins harbouring human EP2 receptor (ChemiSCREEN™ membrane preparation recombinant human EP2 prostanoid receptor that was purchased by Millipore). Total binding was determined in the absence of test compound or PGE2 and non-specific binding was determined in the presence of 1 microM PGE2. Incubations were conducted for 60 minutes at room temperature until equilibrium was reached and terminated by filtration through GF/B filter (Perkin Elmer) prewetted with 0.3% PEI solution. Unbound radiolabelled PGE2 was removed by 8 wash cycles with the same buffer under ice-cold conditions and the filters containing the residual radioactivity were dried for 60 minutes at 60° C. In order to measure the filter bound radioactivity, 40 microL microscint (scintillation liquid) was added to each filter and the chemiluminescence was determined by TopCount-NTX™. The specific binding was calculated by subtracting non-specific binding from each sample. Percent inhibition by test compounds was calculated based on specific binding without test compound. Each sample was measured in triplicates per experiment and for the calculation of the pIC50 at least 2 independent experiments were performed. Determination of half maximal inhibiting concentration (IC50) was performed with GraphPad Prism Software.
The numbers of the compounds correspond to the examples numbers.
EP2 Binding Assay (PGE2 Displacement): pIC50 Values

[2] = system: plasma TNFα after i.v. LPS; assay: In vivo assay: LPS-induced TNFα release in mice; parameters: species or system C57BL/6 mice; settings: Mus musculus; p.o. 1 h prior to i.v. LPS 100 μg/kg; plasma TNFα 1 h after LPS
Procedure: In Vivo Assay: LPS-Induced TNFα Release in Mice
Intravenously administration of lipopolysaccharide (LPS) causes a systemic inflammation characterised by release of pro-inflammatory cytokines, e.g. tumor necrosis factor alpha (TNFα). Selective EP2 agonists are administered per oral 1 h prior intravenously LPS challenge in mice. The anti-inflammatory activity of the selective EP2 agonists is assessed based on TNFα levels in blood plasma 1 h after LPS challenge.
Female C57BL/6 mice weighing 20-25 g were used. Mice were delivered 1 week prior to the experiments and had free access to water and food.
The test compound was mixed with 1.33% polyethylenglycol 400 (PEG400, Merck, Darmstadt, Germany) and subsequently suspended in 2% methocel solution (hypromellose, Sigma, Steinheim, Germany) using the Covaris S2X System (K Biosciences Ltd.; Hoddesdon; United Kingdom). The aimed doses were prepared by dilution series from the stock suspension, which was prepared for the administration of the highest dose in each experiment.
The administered volume of the compound suspension is 10 mL/kg. On day of the experiment the mouse body weights were documented to calculate the volume to be administered. LPS challenged control animals received drug-free vehicle solution as placebo. Test compounds and vehicle were administered by oral gavage 1 h prior to LPS challenge.
LPS (from Escherichia coli 055:B5, Sigma, Steinheim, Germany) was solubilised in 0.9% sterile NaCl solution (B. Braun Melsungen AG, Melsungen, Germany) containing 0.1% hydroxylamine (Sigma, Steinheim, Germany). LPS is intravenously (i.v.) injected at a dose of 100 μg/kg (5 mL/kg b.w.) 1 h after compound or vehicle administration.
One hour after LPS-challenge, the animals were sacrificed by inhalative isoflurane anaesthesia and heparinised blood was obtained by retroorbital bleeding. Blood was centrifuged (21,000×g, 4° C., 10 min), and plasma samples were kept frozen at −20° C. until determination of TNFα levels by ELISA. TNFα was measured with a commercially available ELISA-Kit (Quantikine® Immunoassay Mouse TNFα, R&D Systems, Minneapolis, USA).
The compound effect on TNFα release was calculated individually in percent (%) for each compound treated animal in relation to the mean TNFα level of the vehicle treated LPS-challenged control group: % effect=(Y−K)/K*100 • with defining: • Y=plasma TNFα concentration of the compound treated animal • K=mean plasma TNFα concentration of the vehicle treated group
Statistical analysis was performed on the primary TNFα concentrations by One-Way ANOVA and Dunnett's Multiple Comparison test vs. vehicle-treated control group.

T1 sequence (P43116 whole entry): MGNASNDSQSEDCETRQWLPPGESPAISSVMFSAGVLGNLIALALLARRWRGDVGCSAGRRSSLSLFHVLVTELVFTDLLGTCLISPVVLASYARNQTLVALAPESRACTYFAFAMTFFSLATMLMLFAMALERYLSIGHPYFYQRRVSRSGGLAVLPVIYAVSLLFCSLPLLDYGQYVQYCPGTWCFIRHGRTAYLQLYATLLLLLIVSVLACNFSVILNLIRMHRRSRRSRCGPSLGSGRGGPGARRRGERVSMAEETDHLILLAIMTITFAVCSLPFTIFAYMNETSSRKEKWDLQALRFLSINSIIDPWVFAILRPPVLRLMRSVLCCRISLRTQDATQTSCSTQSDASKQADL

SMILES	IC50 [1]	ED50 [2]
O=C(O)/C=C/c1cccc(NC(=O)c2cc(-c3ccccc3)cc3ccccc23)c1 [Example 1, (2E)-3-(3-{[(3-phenylnaphthalen-1-yl)carbonyl]amino}phenyl)prop-2-enoic acid]	1.26 to 10 nM	0.1 to 3 mg/kg
O=C(O)/C=C/c1ccc(F)c(NC(=O)c2cc(-c3ccccc3)cc3ccccc23)c1 [Example 2, (2E)-3-(4-fluoro-3-{[(3-phenylnaphthalen-1-yl)carbonyl]amino}phenyl)prop-2-enoic acid]	1.26 to 10 nM	0.1 to 3 mg/kg
O=C(O)/C=C/c1ccc(Cl)c(NC(=O)c2cc(-c3ccccc3)cc3ccccc23)c1 [Example 3, (2E)-3-(4-chloro-3-{[(3-phenylnaphthalen-1-yl)carbonyl]amino}phenyl)prop-2-enoic acid]	1.26 to 10 nM	0.1 to 3 mg/kg
O=C(O)/C=C/c1ccc(F)c(NC(=O)c2cc(-c3ccccc3F)cc3ccccc23)c1 [Example 9, (2E)-3-{3-[({3-[2-fluorophenyl]naphthalen-1-yl}carbonyl)amino]-4fluorophenyl}prop-2-enoic acid]	1.26 to 10 nM	0.1 to 3 mg/kg
O=C(O)/C=C/c1ccc(F)c(NC(=O)c2cc(-c3cccc(F)c3)cc3ccccc23)c1 [Example 10, (2E)-3-{3-[({3-[3-fluorophenyl]naphthalen-1-yl}carbonyl)amino]-4fluorophenyl}prop-2-enoic acid]	1.26 to 10 nM	0.1 to 3 mg/kg
